Reference: patent US4546107A, “1,4-Methano-2-benzazepine derivatives useful as cerebal dysfunction-improving drugs, anti-convulsant, anti-epileptic or anti-anxiety drugs” (priority 1982, dated 1985)

Tests used:
picrotoxin = test: Anti-picrotoxin action (picrotoxin-induced lethality in mice); assay type: in vivo, male dd mice; details: for ED50: Mus musculus, po, 0.5 h, read-out: Anti-picrotoxin-lethal action, ED50
Procedure: 1. Anti-picrotoxin Action
Groups each of 7-14 male dd mice were used. A test compound was orally administered and 60 minutes thereafter, picrotoxin (5 mg/kg) was administered subcutaneously. The 50% anti-lethal dose (ED50) was calculated from the servival rate within 30 minutes.

bicuculline = test: Anti-bicuculline action (bicuculline-induced tonic-extensile convulsions in mice); assay type: in vivo, male dd mice; details: for ED50: Mus musculus, po, 5 min, read-out: Anti-bicuculline-convulsive action, ED50
Procedure: 2. Anti-bicuculline Action
Groups each of 4-14 male dd mice were used. Each test compound was administered orally and 60 minutes thereafter, bicuculline (0.6 mg/kg) was administered intravenously. The dose (ED50) required for 50% suppression of the occurrence of tonic-extensile convulsions within 5 minutes against the control group was determined.

Row | Compound | ED50 (picrotoxin) | ED50 (bicuculline) | Anti-picrotoxin-lethal action, percent in parentheses (picrotoxin; printed beside ED50 >100 mg/kg, p.o., mice, picrotoxin 5 mg/kg s.c.) | Anti-bicuculline-convulsive action, percent in parentheses (bicuculline; printed beside ED50 >100 mg/kg, p.o., mice, bicuculline 0.6 mg/kg i.v.)
1 | CN1C(=O)C2Cc3ccc(Cl)cc3C1C2 (stereo not drawn) [B, 8-chloro-2-methyl-1,4-methano-2,3,4,5-tetrahydro-1H-2-benzazepin-3-one] | 66 mg/kg | 45 mg/kg | – | –
2 | O=C1NC2CC1Cc1ccc(Cl)cc12 (stereo not drawn) [A, 8-chloro-1,4-methano-2,3,4,5-tetrahydro-1H-2-benzazepin-3-one] | 62 mg/kg | 95 mg/kg | – | –
3 | O=C1NC2CC1Cc1ccccc12 (stereo not drawn) [D, 1,4Methano-2,3,4,5-tetrahydro-1H--2benzazepin-3-one] | 1100 mg/kg | > 1000 mg/kg | – | –
4 | COc1ccc2c(c1)C1CC(C2)C(=O)N1C (stereo not drawn) [E, 8Methoxy-2-methyl-1,4-methano-2,3,4,5-tetrahydro-1H--2-benzazepin3-one] | > 100 mg/kg | > 100 mg/kg | 0% | 0%
5 | O=C1NC2CC1Cc1c(Cl)cc(Cl)cc12 (stereo not drawn) [C, 6,8-dichloro-1,4-methano-2,3,4,5-tetrahydro-1H-2-benzazepin-3-one] | 50 mg/kg | 73 mg/kg | – | –
